# In patent publication US20250002435A1, “ARYLATED FENCHONE DERIVATIVES, COMPOSITIONS COMPRISING THEM, PROCESSES FOR THEIR PREPARATION AND USES THEREOF” (priority 2021, published 2025):
# Legend:
# [1] = tested on: zymosan-induced paw swelling; test: zymosan mouse paw inflammatory pain model, paw swelling, with or without CB2 antagonists; format: in vivo; conditions: for paw swelling vs control: 6 h; for paw swelling effects: SR144528 experiment, 24 h after induction
# Protocol: (§1) To induce inflammation, 40 μL of 1.5% (w/v) zymosan A (Sigma) suspended in 0.9% saline was injected into the sub-planter surface of the right hind paw of the mice. Immediately after zymosan injection, antagonists were injected intraperitoneally (IP) and after 30 minutes, the fenchone derivatives dissolved in 0.1 mL vehicle containing ethanol:Cremophore:saline at a ratio of 1:1:18 were injected. Control mice were injected with the vehicle only. After 2, 6, and 24 hrs, paw swelling, and pain perception were measured.
# (§2) Specifically, measurement of Oedema Formation was assessed by monitoring paw swelling via calibrated calipers (0.01 mm), 6 and 24 hrs following injections of zymosan alone and/or the test compounds. Pain hyperalgesia was evaluated by the paw withdrawal von Frey test at 6, and 24 h following injections of zymosan and/or the test compounds. […] In this study, only 1.4-60 g corresponding to 4.17 to 5.88 log of force was used, to test the mouse sensitivity to a mechanical stimulus on the swollen paw. The measurements were performed in a quiet room. Before paw pain measurements, the animals were held for 10 sec. The trained investigator applied the filament to the central area of the hind paw with gradual increasing size. The test consisted of poking the middle of the hind paw to provoke a flexion reflex followed by a clear flinch response after paw withdrawal. Each one of the von Frey filaments was applied for approximately 3-4 s to induce the end-point reflex. The first testing was done by using the force filament of 1.4 g. If there was no withdrawal response, the next higher stimulus was tried. The mechanical threshold force (in grams (g)) was defined as the lowest force imposed by two von Frey monofilaments of various sizes, required to produce a paw retraction. The untreated left hind paw served as a control.
# CNR2 [2] = molecular target: T1, CNR2 (Homo sapiens (Human), UniProt P34972); test: cAMP Hunter antagonist assay, CB2; format: cell-based; conditions: cAMP antagonist mode
# Protocol: (§3) Cannabinoid receptors belong to G-protein-coupled receptors which may transduce intracellular agonist-antagonist responses regulating in part levels of cAMP within the cells. Fenchone derivates were assayed using Eurofins proprietary assays (i.e. CB1-Antagonist Catalog #86-0007P-2277AN; CB2-Antagonist Catalog ref. 86-0007P-2818AN; CB1-Agonist; Catalog #86-0007P-2277AG; CB2-Agonist-Catalog #86-0007P-2818AG).
# (§4) Briefly, for antagonist activity, cAMP Hunter™ Gi cell lines overexpress naturally Gi coupled, wild type GPCRs and are designed to detect inhibition of intracellular cAMP production in response to agonist stimulation of the receptor. These cell lines are designed to be used in conjunction with the HitHunter® cAMP Assay Detection Kit.
# as §4, with “Similarly,” for “Briefly,”, “agonist” for “antagonist”, “Gs” for “Gi”, “increases in” for “inhibition of”, “levels” for “production”, “Kit. […]” for “Kit.”
# [3] = tested on: zymosan-induced hyperalgesia; test: zymosan mouse paw inflammatory pain model, von Frey test, with or without CB2 antagonists; format: in vivo; conditions: for von Frey pain effect: SR144528 experiment, 25 mg/kg IP
# Protocol: as §1, §2
# CNR1 = CNR1 (Homo sapiens (Human), UniProt P21554); test: cAMP Hunter agonist assay, CHO-K1 cells expressing CB1; format: cell-based
# Protocol: as §3
# Similarly, for agonist activity, cAMP Hunter™ Gs cell lines overexpress naturally Gs coupled, wild type GPCRs and are designed to detect increases in intracellular cAMP levels in response to agonist stimulation of the receptor. These cell lines are designed to be used in conjunction with the HitHunter® cAMP Assay Detection Kit. For both assays, human CB1 or CB2 receptors were stably transfected CHO-K1 cells and subjected to positive controls, known to activate the increase of cAMP for both receptors (Agonist control 20 μM Forskolin for CB1 and 25 μM Forskolin for CB2) or inhibit cAMP intracellular levels of CB1 ([…] CP55940) or CB2 ([…] CP55940). Cells were seeded in a total volume of 20 μL into white walled, 384-well microplates and incubated at 37° C. overnight. Prior to testing cell plating media was exchanged with 10 uL of Assay buffer (HBSS+10 mM HEPES). […]
# hCB2R = hCB2R (Homo sapiens (Human), UniProt P34972); test: [3H]CP-55,940 competition displacement binding, membranes of CHO-K1 cells expressing human CB2R; conditions: for Ki: displacement of [3H]CP-55,940; for mCB1R/hCB2R: selectivity index from Ki values
# Protocol: Affinity for Cannabinoid Receptors. The compounds were further characterized using a radioligand binding assay to determine their affinities for CB1R and CB2R based on each test compound's ability to displace the radiolabeled CB1R/CB2R agonist CP-55,940 from membranes prepared from a mouse brain (a source of CB1R) and membranes of cells expressing the human CB2R. […] Therefore, the compounds were assayed using membranes from CHO-K1 cells expressing the human CB2R (hCB2R).
# Membranes from cells expressing human CB2R were purchased from Charles River, (Cat #A308; Ohio, US). Solutions of test compounds ranging from 0.1 nM to 10 mM were prepared in DMSO. The desired amount of membrane preparation was diluted with ice-cold assay buffer (50 mM Tris-HCl, 2.5 mM EDTA, 5 mM MgCl2, 0.1% BSA, pH 7.4) and was vortexed. […] The assays were incubated for 90 minutes at 30° C. and then immediately filtered on WHATMAN GF/B FilterPaper (Fired) using a Brandel M-24R Harvester followed by six washes with ice cold wash buffer (50 mM Tris-HCl, 2.5 mM EDTA, 5 mM MgCl2, 0.1% BSA, pH 7.4). Radioactivity was detected by adding the FilterPaper directly to the ULTIMA GOLD scintillation cocktail (PerkinElmer), incubation at 20° C. for 60 min and then counted using a Tri-Carb 4910TR liquid scintillation counter.
# CNR2 [4] = molecular target: T1, CNR2; test: cAMP Hunter agonist assay, CHO-K1 cells expressing CB2; format: cell-based; conditions: for EC50: cells expressing CNR2; for agonist response CNR2: cells expressing CNR2, cAMP
# Protocol: as §3
# Similarly, for agonist activity, cAMP Hunter™ Gs cell lines overexpress naturally Gs coupled, wild type GPCRs and are designed to detect increases in intracellular cAMP levels in response to agonist stimulation of the receptor. These cell lines are designed to be used in conjunction with the HitHunter® cAMP Assay Detection Kit. For both assays, human CB1 or CB2 receptors were stably transfected CHO-K1 cells and subjected to positive controls, known to activate the increase of cAMP for both receptors (Agonist control 20 μM Forskolin for CB1 and 25 μM Forskolin for CB2) or inhibit cAMP intracellular levels of CB1 ([…] CP55940) or CB2 ([…] CP55940). Cells were seeded in a total volume of 20 μL into white walled, 384-well microplates and incubated at 37° C. overnight. Prior to testing cell plating media was exchanged with 10 uL of Assay buffer (HBSS+10 mM HEPES). Five 5 μL of agonist (test sample, vehicle or positive control) were added to cells and incubated at 37° C. for 30 minutes. Final assay vehicle concentration was 1% and the results are expressed in relation to the control ligand.
# TNFα = test: serum TNFα ELISA 24 h after zymosan injection; format: in vivo, mouse; conditions: 25 mg/kg, serum 24 h after zymosan
# Protocol: Blood was collected 24 h after zymosan injection, and the sera were assayed for TNFα using a mouse TNFα ELISA kit (R&D Systems, Minneapolis, MN, USA), according to the manufacturer's instructions.
# [5] = 25 mg/kg IP together with CB2 antagonist SR144528 1 mg/kg
# hCB2R, sequence (P34972 whole entry): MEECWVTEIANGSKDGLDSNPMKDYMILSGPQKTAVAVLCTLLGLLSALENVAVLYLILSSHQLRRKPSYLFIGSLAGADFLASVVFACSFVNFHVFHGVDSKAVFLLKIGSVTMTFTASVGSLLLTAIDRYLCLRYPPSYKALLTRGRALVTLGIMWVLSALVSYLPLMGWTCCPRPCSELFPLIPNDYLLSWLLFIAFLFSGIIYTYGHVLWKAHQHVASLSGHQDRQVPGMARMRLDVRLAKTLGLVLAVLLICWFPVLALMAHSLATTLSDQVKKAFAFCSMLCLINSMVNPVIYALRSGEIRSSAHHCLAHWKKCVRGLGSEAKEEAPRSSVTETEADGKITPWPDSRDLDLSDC
Structure (SMILES),"paw swelling vs control [1, 5]","paw swelling vs control ([1]; 25 mg/kg IP, alone)",paw swelling effects [1],antagonistic effect CNR2 (CNR2 [2]),von Frey pain effect [3],agonist response CNR1 (CNR1),Ki (hCB2R) [nM],mCB1R/hCB2R (hCB2R),EC50 (CNR2 [4]) [nM],agonist response CNR2 (CNR2 [4]),"paw swelling ([1]; 25 mg/kg IP 1D and 10 mg/kg AM630, 6 h)","paw swelling ([1]; 25 mg/kg IP alone, 24 h, AM630 experiment)",levels of TNF-α (TNFα),"von Frey pain phenotype ([3]; 25 mg/kg IP alone, AM630 experiment)",selectivity for the hCB2R over the mCB1R (hCB2R; from Ki values) [fold]
"CCCCCc1cc(OC)c(C2(O)C3(C)CCC(C3)C2(C)C)c(OC)c1 (single isomer, unassigned) [Compound 1b, 2-(2,6′-dimethoxy-4′-pentylphenyl)-1,3,3-trimethylbicyclo[2.2.1]heptan-2-ol]",paw swelling was unaffected,reduced swelling response,not observed,no detectable antagonistic effect,insignificant,no response,14.4,158.3,50,noticeable response,–,–,–,–,–
"CCCCCCC(C)(C)c1cc(OC)c([C@]2(O)C3(C)CCC(C3)C2(C)C)c(OC)c1 (stereo partly shown) [Compound 1d, 2-(2,6′-dimethoxy-4′-(2″-methyloctan-2″-yl)phenyl)-1,3,3-trimethyl-bicyclo[2.2.1]heptan-2-ol]",swelling was reduced compared to the control,reduced swelling response,not observed,no detectable antagonistic effect,insignificant,no response,3.51,121.8,10,noticeable response,reduced swelling,reduced swelling with 1D alone was sustained,reduced significantly,significant affect,121
